Laboratory results taken from patent US20230382949A1 (HEPTARES THERAPEUTICS LIMITED, priority 2020, published 2023).
Read-outs that look alike come from different tables or passages of the source. Starred links: 1 amine or outer side, 2 acyl side, 3 side chain; linkers in the order of their positions; H or OH if unused. Non-standard residues stand in square brackets, D forms with d. Residues, ends and D or L forms follow the SMILES beside them. *: point of attachment. Ala(piperidin-4-yl) = O=C([C@H](CC1CCN([*:3])CC1)N[*:1])[*:2]; Malonyl(2,2-Me2,histaminyl) = CC(C)(C(=O)NCCc1cnc[nH]1)C(=O)*; Bip = N[C@@H](Cc1ccc(-c2ccccc2)cc1)C(=O)O; dBip = N[C@H](Cc1ccc(-c2ccccc2)cc1)C(=O)O; Oic = O=C(O)[C@@H]1C[C@@H]2CCCC[C@@H]2N1; Phe(4-Br) = N[C@@H](Cc1ccc(Br)cc1)C(=O)O; His(τ-Me) = Cn1cnc(C[C@H](N)C(=O)O)c1; NMeH = CN[C@@H](Cc1c[nH]cn1)C(=O)O; X1 = CC(C)(C(=O)NCCc1ccccc1)C(=O)*; X3 = CC(C)(C(=O)NCCc1ccccn1)C(=O)*; hArg = N=C(N)NCCCC[C@H](N)C(=O)O; 3Pal = N[C@@H](Cc1cccnc1)C(=O)O; Pip = O=C(O)[C@@H]1CCCCN1; Nle = CCCC[C@H](N)C(=O)O; Aib = CC(C)(N)C(=O)O; Bn = c1ccc(C*)cc1

Legend:
human Apelin receptor [1] = biological target: T1, human Apelin receptor (Homo sapiens, UniProt P35414); assay: cAMP accumulation assay (HTRF), functional agonism of human Apelin receptors; assay type: cell-based; details: for Emax: CHO
T1 sequence (P35414 1-380): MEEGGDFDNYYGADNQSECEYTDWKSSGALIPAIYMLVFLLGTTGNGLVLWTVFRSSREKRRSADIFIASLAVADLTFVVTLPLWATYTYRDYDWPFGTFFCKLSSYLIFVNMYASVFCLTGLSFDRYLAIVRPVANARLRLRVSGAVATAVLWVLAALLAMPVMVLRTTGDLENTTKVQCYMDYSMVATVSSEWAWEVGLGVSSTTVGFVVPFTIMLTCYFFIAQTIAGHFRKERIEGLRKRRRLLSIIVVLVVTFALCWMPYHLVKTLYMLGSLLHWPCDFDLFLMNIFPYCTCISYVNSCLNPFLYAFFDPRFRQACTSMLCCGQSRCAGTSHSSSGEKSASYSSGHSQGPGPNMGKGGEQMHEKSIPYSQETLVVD
Excerpt: cAMP functional assay. cAMP production was quantified using the Homogeneous Time-Resolved Fluorescence (HTRF) cAMP dynamic-2 assay (Cisbio, France).

human Apelin receptor [2] = biological target: T2, human Apelin receptor (Homo sapiens, UniProt P35414); assay: β-arrestin accumulation assay, functional agonism of human Apelin receptors; assay type: cell-based
T2 construct: host or cells: CHO-K1 cells
Procedure: β-arrestin assay. […] After 16 h incubation at 37° C. media was removed and cells were incubated at 37° C. for 90 min in serum free media containing increasing concentrations of test agonist. The assay reaction was stopped by adding detection reagent (DiscoveRx) and incubation for 60 min in the dark. Levels of receptor activation were then measured on a PheraStar fluorescence plate reader (BMG LabTech) and EC50 values were determined using Graphpad Prism.
T2 sequence (P32121 whole entry partner, one chain of several): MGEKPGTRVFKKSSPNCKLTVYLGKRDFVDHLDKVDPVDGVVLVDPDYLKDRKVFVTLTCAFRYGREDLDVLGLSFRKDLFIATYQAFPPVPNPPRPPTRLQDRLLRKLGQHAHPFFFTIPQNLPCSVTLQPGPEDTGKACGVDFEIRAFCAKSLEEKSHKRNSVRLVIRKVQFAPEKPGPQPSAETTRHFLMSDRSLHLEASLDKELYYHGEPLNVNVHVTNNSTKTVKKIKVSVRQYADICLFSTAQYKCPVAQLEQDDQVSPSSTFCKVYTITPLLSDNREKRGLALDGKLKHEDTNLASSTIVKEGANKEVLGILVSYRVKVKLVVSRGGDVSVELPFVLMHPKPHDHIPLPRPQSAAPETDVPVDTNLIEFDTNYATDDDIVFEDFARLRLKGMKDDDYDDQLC

[3] = Human Apelin agonist cAMP assay, CHO cells stably expressing the human Apelin receptor, 3 uM forskolin
[4] = pEC50, Human Apelin agonist cAMP assay, CHO cells stably expressing the human Apelin receptor, 3 uM forskolin

Emax (human Apelin receptor [1]; read-out: Emax) | EC50 (human Apelin receptor [1]; read-out: pEC50 (converted)) | Compound | Emax (human Apelin receptor [1]; [3]) | EC50 (human Apelin receptor [1]; [4]) | EC50 (human Apelin receptor [2])
– | – | CC(C)C[C@H](NC(=O)[C@H](CCCNC(=N)N)NC(=O)[C@@H]1CCCN1C(=O)[C@@H](CCCNC(=N)N)NC(=O)[C@H](CCC(N)=O)NC(=O)C(C)(C)C(=O)NCCc1cnc[nH]1)C(=O)NC(C)(C)C(=O)N[C@@H](Cc1cn(C)cn1)C(=O)N[C@@H](CC1CCNCC1)C(=O)NCC(=O)N1[C@H](C(=O)N[C@@H](Cc2ccc(Br)cc2)C(=O)N2CCC[C@H]2C(=O)N[C@H](Cc2ccc(-c3ccccc3)cc2)C(=O)O)C[C@@H]2CCCC[C@@H]21 [Example 49] ({Malonyl(2,2-Me2,histaminyl)}-Q[dR]PRL[Aib][His(τ-Me)][Ala(piperidin-4-yl)]G[Oic][Phe(4-Br)]P[dBip]-OH) | 87.2% | 7.94 nM | > 10000 nM
– | – | CC(C)C[C@H](NC(=O)[C@@H](CCCNC(=N)N)NC(=O)[C@@H]1CCCN1C(=O)[C@H](CCCCNC(=N)N)NC(=O)[C@H](CCC(N)=O)NC(=O)C(C)(C)C(=O)NCCc1ccccc1)C(=O)NC(C)(C)C(=O)N[C@@H](Cc1c[nH]cn1)C(=O)N[C@@H](CC1CCNCC1)C(=O)NCC(=O)N1[C@H](C(=O)N[C@@H](Cc2ccc(Br)cc2)C(=O)N2CCC[C@H]2C(=O)N[C@H](Cc2ccc(-c3ccccc3)cc2)C(=O)O)C[C@@H]2CCCC[C@@H]21 [Example 45] (X1-Q[hArg]P[dR]L[Aib]H[Ala(piperidin-4-yl)]G[Oic][Phe(4-Br)]P[dBip]-OH) | 59% | 39.8 nM | > 10000 nM
– | – | CCCC[C@H](NC(=O)[C@@H]1C[C@@H]2CCCC[C@@H]2N1C(=O)CNC(=O)[C@H](CC1CCNCC1)NC(=O)[C@H](Cc1c[nH]cn1)NC(=O)[C@@H](C)NC(=O)[C@H](CC(C)C)NC(=O)[C@H](CCCNC(=N)N)NC(=O)[C@@H]1CCCN1C(=O)[C@H](CCCNC(=N)N)NC(=O)[C@H](CCC(N)=O)NC(=O)C(C)(C)C(=O)NCCc1cnc[nH]1)C(=O)N1CCC[C@H]1C(=O)N[C@H](Cc1ccc(-c2ccccc2)cc1)C(=O)O [Example 59] ({Malonyl(2,2-Me2,histaminyl)}-QRPRL[dA]H[Ala(piperidin-4-yl)]G[Oic][Nle]P[dBip]-OH) | 48.1% | 100 nM | > 10000 nM
– | – | CC(C)C[C@H](NC(=O)[C@@H](CCCNC(=N)N)NC(=O)[C@@H]1CCCN1C(=O)[C@H](CCCCNC(=N)N)NC(=O)[C@H](CCC(N)=O)NC(=O)[C@@H](CCCNC(=N)N)NC(=O)C(C)(C)C(=O)NCCc1cnc[nH]1)C(=O)N[C@H](C)C(=O)N[C@@H](Cc1c[nH]cn1)C(=O)N[C@@H](CC1CCNCC1)C(=O)NCC(=O)N1[C@H](C(=O)N[C@@H](Cc2ccc(Br)cc2)C(=O)N2CCC[C@H]2C(=O)N[C@H](Cc2ccc(-c3ccccc3)cc2)C(=O)O)C[C@@H]2CCCC[C@@H]21 [Example 1] ({Malonyl(2,2-Me2,histaminyl)}-[dR]Q[hArg]P[dR]L[dA]H[Ala(piperidin-4-yl)]G[Oic][Phe(4-Br)]P[dBip]-OH) | 27.2% | 15.8 nM | > 10000 nM
75.4% | 10 nM | CC(C)C[C@H](NC(=O)[C@@H](CCCNC(=N)N)NC(=O)[C@@H]1CCCCN1C(=O)[C@H](CCCCNC(=N)N)NC(=O)[C@H](CCC(N)=O)NC(=O)[C@@H](CCCNC(=N)N)NC(=O)C(C)(C)C(=O)NCCc1cnc[nH]1)C(=O)NC(C)(C)C(=O)N[C@@H](Cc1cccnc1)C(=O)N[C@@H](CC1CCNCC1)C(=O)NCC(=O)N1[C@H](C(=O)N[C@@H](Cc2ccc(Br)cc2)C(=O)N2CCC[C@H]2C(=O)N[C@H](Cc2ccc(-c3ccccc3)cc2)C(=O)O)C[C@@H]2CCCC[C@@H]21 [Example 31] ({Malonyl(2,2-Me2,histaminyl)}-[dR]Q[hArg][Pip][dR]L[Aib][3Pal][Ala(piperidin-4-yl)]G[Oic][Phe(4-Br)]P[dBip]-OH) | – | – | > 10000 nM
– | – | CC(C)C[C@H](NC(=O)[C@@H](CCCNC(=N)N)NC(=O)C1C2CC2CN1C(=O)[C@H](CCCCNC(=N)N)NC(=O)[C@H](CCC(N)=O)NC(=O)[C@@H](CCCNC(=N)N)NC(=O)C(C)(C)C(=O)NCCc1c[nH]cn1)C(=O)NC(C)(C)C(=O)N[C@@H](Cc1c[nH]cn1)C(=O)N[C@@H](CC1CCNCC1)C(=O)NCC(=O)N1[C@H](C(=O)N[C@@H](Cc2ccc(Br)cc2)C(=O)N2CCC[C@H]2C(=O)N[C@H](Cc2ccc(-c3ccccc3)cc2)C(=O)O)C[C@@H]2CCCC[C@@H]21 (single isomer, unassigned) [37 Isomer 1] | 68.6% | 10 nM | > 100000 nM
– | – | CC(C)C[C@H](NC(=O)[C@@H](CCCNC(=N)N)NC(=O)[C@@H]1C[C@@H]2CCCC[C@@H]2N1C(=O)[C@H](CCCCNC(=N)N)NC(=O)[C@H](CCC(N)=O)NC(=O)[C@@H](CCCNC(=N)N)NC(=O)C(C)(C)C(=O)NCCc1c[nH]cn1)C(=O)NC(C)(C)C(=O)N[C@@H](Cc1c[nH]cn1)C(=O)N[C@@H](CC1CCNCC1)C(=O)NCC(=O)N1[C@H](C(=O)N[C@@H](Cc2ccc(Br)cc2)C(=O)N2CCC[C@H]2C(=O)N[C@H](Cc2ccc(-c3ccccc3)cc2)C(=O)O)C[C@@H]2CCCC[C@@H]21 [Example 10] ({Malonyl(2,2-Me2,histaminyl)}-[dR]Q[hArg][Oic][dR]L[Aib]H[Ala(piperidin-4-yl)]G[Oic][Phe(4-Br)]P[dBip]-OH) | 52.5% | 20 nM | > 10000 nM
– | – | CC(C)C[C@H](NC(=O)[C@@H](CCCNC(=N)N)NC(=O)[C@@H]1CCCN1C(=O)[C@H](CCCCNC(=N)N)NC(=O)[C@H](CCC(N)=O)NC(=O)[C@@H](CCCNC(=N)N)NC(=O)C(C)(C)C(=O)NCCc1c[nH]cn1)C(=O)NC(C)(C)C(=O)N[C@@H](Cc1c[nH]cn1)C(=O)N[C@@H](CC1CCNCC1)C(=O)NCC(=O)N1[C@H](C(=O)N[C@@H](Cc2ccc(-c3ccccc3)cc2)C(=O)N2CCC[C@H]2C(=O)N[C@H](Cc2ccc(-c3ccccc3)cc2)C(=O)O)C[C@@H]2CCCC[C@@H]21 [Example 19] ({Malonyl(2,2-Me2,histaminyl)}-[dR]Q[hArg]P[dR]L[Aib]H[Ala(piperidin-4-yl)]G[Oic][Bip]P[dBip]-OH) | 97% | 20 nM | > 10000 nM
– | – | CC(C)C[C@H](NC(=O)[C@@H](CCCNC(=N)N)NC(=O)[C@@H]1CCCN1C(=O)[C@H](CCCCNC(=N)N)NC(=O)[C@H](CCC(N)=O)NC(=O)C(C)(C)C(=O)NCCc1ccccn1)C(=O)NC(C)(C)C(=O)N[C@@H](Cc1c[nH]cn1)C(=O)N[C@@H](CC1CCNCC1)C(=O)NCC(=O)N1[C@H](C(=O)N[C@@H](Cc2ccc(Br)cc2)C(=O)N2CCC[C@H]2C(=O)N[C@H](Cc2ccc(-c3ccccc3)cc2)C(=O)O)C[C@@H]2CCCC[C@@H]21 [Example 46] (X3-Q[hArg]P[dR]L[Aib]H[Ala(piperidin-4-yl)]G[Oic][Phe(4-Br)]P[dBip]-OH) | 55% | 39.8 nM | > 10000 nM
– | – | CC(C)C[C@H](NC(=O)[C@H](CCCNC(=N)N)NC(=O)[C@@H]1CCCN1C(=O)[C@@H](CCCNC(=N)N)NC(=O)[C@H](CCC(N)=O)NC(=O)C(C)(C)C(=O)NCCc1cnc[nH]1)C(=O)NC(C)(C)C(=O)N(C)[C@@H](Cc1c[nH]cn1)C(=O)N[C@@H](CC1CCNCC1)C(=O)NCC(=O)N1[C@H](C(=O)N[C@@H](Cc2ccc(Br)cc2)C(=O)N2CCC[C@H]2C(=O)N[C@H](Cc2ccc(-c3ccccc3)cc2)C(=O)O)C[C@@H]2CCCC[C@@H]21 [Example 44] ({Malonyl(2,2-Me2,histaminyl)}-Q[dR]PRL[Aib][NMeH][Ala(piperidin-4-yl)]G[Oic][Phe(4-Br)]P[dBip]-OH) | 34.7% | 50.1 nM | > 10000 nM
61.2% | 1.26 nM | CC(C)C[C@H](NC(=O)[C@@H](CCCNC(=N)N)NC(=O)[C@@H]1CCCCN1C(=O)[C@H](CCCCNC(=N)N)NC(=O)[C@H](CCC(N)=O)NC(=O)C(C)(C)C(=O)NCCc1cnc[nH]1)C(=O)NC(C)(C)C(=O)N[C@@H](Cc1c[nH]cn1)C(=O)N[C@@H](CC1CCNCC1)C(=O)N[C@@H](C)C(=O)N1[C@H](C(=O)N[C@@H](Cc2ccc(Br)cc2)C(=O)N2CCC[C@H]2C(=O)N[C@H](Cc2ccc(-c3ccccc3)cc2)C(=O)O)C[C@@H]2CCCC[C@@H]21 [Example 54] ({Malonyl(2,2-Me2,histaminyl)}-Q[hArg][Pip][dR]L[Aib]H[Ala(piperidin-4-yl)]A[Oic][Phe(4-Br)]P[dBip]-OH) | – | – | > 10000 nM
– | – | CC(C)C[C@H](NC(=O)[C@@H](CCCNC(=N)N)NC(=O)[C@@H]1CCCN1C(=O)[C@H](CCCCNC(=N)N)NC(=O)[C@H](CCC(N)=O)NC(=O)[C@@H](CCCNC(=N)N)NC(=O)C(C)(C)C(=O)NCCc1c[nH]cn1)C(=O)NC(C)(C)C(=O)N[C@@H](Cc1c[nH]cn1)C(=O)N[C@@H](CC1CCNCC1)C(=O)NCC(=O)N1[C@H](C(=O)N[C@@H](Cc2ccc(Br)cc2)C(=O)N2CCC[C@H]2C(=O)N[C@H](Cc2ccc(OCc3ccccc3)cc2)C(=O)O)C[C@@H]2CCCC[C@@H]21 [Example 22] ({Malonyl(2,2-Me2,histaminyl)}-[dR]Q[hArg]P[dR]L[Aib]H[Ala(piperidin-4-yl)]G[Oic][Phe(4-Br)]P[dY](Bn)-OH) | 98.1% | 7.94 nM | > 10000 nM
